Experimental data taken from ChEMBL document CHEMBL4043117, “Potential peptidic proteasome inhibitors by incorporation of an electrophilic trap based on amino acid derived α-substituted sulfonyl fluorides” (Bioorg Med Chem, 2017).
Active and inactive are the calls of the source. The rule behind the calls is not given here.

Columns and labels:
Homo sapiens [1] = organism: Homo sapiens; assay: Inhibition of human erythrocyte 20S proteasome at 0.002 to 400 uM using Suc-LLVY-AMC substrate incubated for 1 hr by fluorescence assay
[2] = Stability in PBS buffer at pH 8 assessed as half life for compound hydrolysis by HPLC method; format: physicochemical
[3] = Stability in PBS buffer at pH 6.5 assessed as half life for compound hydrolysis by HPLC method; format: physicochemical
Homo sapiens [4] = organism: Homo sapiens; assay: Inhibition of human erythrocyte 20S proteasome at 0.002 to 400 uM using compounds dissolved in 20% v/v DMSO in presence of Suc-LLVY-AMC substrate incubated for 1 hr by fluorescence assay
[5] = Stability in PBS buffer at pH 7.4 assessed as half life for compound hydrolysis by HPLC method; format: physicochemical

CC(C)C[C@@H](CNC(=O)[C@H](CC(C)C)NC(=O)[C@H](CC(C)C)NC(=O)OCc1ccccc1)S(=O)(=O)F
inhibition (Homo sapiens [1]): inactive | half-life [2]: 5 to 7 h | half-life [3]: 5 to 7 h | inhibition (Homo sapiens [4]): inactive | half-life [5]: 5 to 7 h

CC(C)C[C@@H](CS(=O)(=O)F)NC(=O)[C@H](CC(C)C)NC(=O)[C@H](CC(C)C)NC(=O)[C@H](CC(C)C)NC(=O)OCc1ccccc1
inhibition (Homo sapiens [1]): Active | half-life [2]: 10 to 12 h | half-life [3]: 10 to 12 h | half-life [5]: 10 to 12 h

CC(C)C[C@@H](CNC(=O)[C@H](CC(C)C)NC(=O)[C@H](CC(C)C)NC(=O)[C@H](CC(C)C)NC(=O)OCc1ccccc1)S(=O)(=O)F
inhibition (Homo sapiens [1]): inactive | half-life [2]: 5 to 7 h | half-life [3]: 5 to 7 h | inhibition (Homo sapiens [4]): inactive | half-life [5]: 5 to 7 h

CC(C)C[C@H](NC(=O)[C@H](CCc1ccccc1)NC(=O)CN1CCOCC1)C(=O)N[C@@H](Cc1ccccc1)C(=O)NC[C@H](Cc1ccccc1)S(=O)(=O)F
inhibition (Homo sapiens [1]): inactive | inhibition (Homo sapiens [4]): inactive

CC(C)C[C@H](NC(=O)OCc1ccccc1)C(=O)N[C@@H](CC(C)C)C(=O)NC[C@H](Cc1ccccc1)S(=O)(=O)F
inhibition (Homo sapiens [1]): inactive | inhibition (Homo sapiens [4]): inactive

CC(C)C[C@@H](CS(=O)(=O)F)NC(=O)[C@H](CC(C)C)NC(=O)[C@H](CC(C)C)NC(=O)OCc1ccccc1
inhibition (Homo sapiens [1]): Active | half-life [2]: 10 to 12 h | half-life [3]: 10 to 12 h | half-life [5]: 10 to 12 h

CC(C)C[C@H](NC(=O)OCc1ccccc1)C(=O)N[C@@H](CC(C)C)C(=O)N[C@@H](CC(C)C)C(=O)NC[C@H](Cc1ccccc1)S(=O)(=O)F
inhibition (Homo sapiens [1]): inactive | inhibition (Homo sapiens [4]): inactive

CC(C)C[C@@H](CNC(=O)[C@H](Cc1ccccc1)NC(=O)[C@H](CC(C)C)NC(=O)[C@H](CCc1ccccc1)NC(=O)CN1CCOCC1)S(=O)(=O)F
inhibition (Homo sapiens [1]): inactive | inhibition (Homo sapiens [4]): inactive
